Experimental findings from BindingDB's records for doi:10.1016/s0960-894x(98)00169-3 (Merck Research Laboratories, 1999) are described below.

The test concerns the target Beta-2 adrenergic receptor (Homo sapiens, UniProt P07550). The test is described as follows: Compound was tested for agonist activity against cloned human beta-2 adrenergic receptor at a concentration of 1000 nM.

Beta-2 adrenergic receptor, sequence (P07550 whole entry): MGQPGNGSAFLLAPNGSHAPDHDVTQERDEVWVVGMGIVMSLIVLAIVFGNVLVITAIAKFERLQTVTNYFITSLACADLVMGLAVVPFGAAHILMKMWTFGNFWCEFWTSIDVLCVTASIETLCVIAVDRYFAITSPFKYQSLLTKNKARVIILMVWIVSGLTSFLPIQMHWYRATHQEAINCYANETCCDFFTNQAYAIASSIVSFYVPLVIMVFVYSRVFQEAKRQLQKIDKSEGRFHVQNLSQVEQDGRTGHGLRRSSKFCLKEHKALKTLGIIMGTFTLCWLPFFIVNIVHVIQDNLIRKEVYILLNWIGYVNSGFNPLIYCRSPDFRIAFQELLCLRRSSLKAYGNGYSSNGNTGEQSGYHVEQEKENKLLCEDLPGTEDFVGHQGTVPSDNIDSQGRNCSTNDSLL

The molecule `COc1ccc(CC[C@H](C)NC[C@@H](O)COc2ccc(O)cc2)cc1` [4-{(R)-2-Hydroxy-3-[(S)-3-(4-methoxy-phenyl)-1-methyl-propylamino]-propoxy}-phenol] returned an EC50 of under 0.1 nM.

What is called EC50 is the concentration at which the effect is half-maximal. A higher EC50 goes with a need for much substance.
